Patent US8846666B2, “Oxathiazine derivatives which are substituted with benzyl or heteromethylene groups, method for producing them, their use as medicine and drug containing said derivatives and the use thereof” (Sanofi, priority 2011, dated 2014)

Target: human 11β-HSD1 microsome fraction (Homo sapiens, UniProt P28845)
Assay: Enzymatic 11Beta-HSD1 test (SPA-based detection)
Type: biochemical
Settings: [1,2-3H]-cortisone, NADPH, 37° C. for 1 hour
Protocol: Enzymatic 11Beta-HSD1 Test:
To measure the activity of the compounds, an SPA-based detection method (Solly et al. 2005) was employed. First of all, 20 μl of the human 11β-HSD1 microsome fraction (0.2 μg of protein), prepared in 50 mM HEPES, 0.1% BSA (w/v), were applied to a plate with 384 wells. The test compounds (0.09 μl) were applied to the assay plate in 100% DMSO. The reaction was started by addition of 20 μl of [1,2-^3H]-cortisone (0.1 μCi/[…]) in assay buffer comprising 25 mM HEPES, 100 mM KCl, 5 mM NaCl, 2 mM MgCl2 and 0.25 mM NADPH. The plate was agitated at 37° C. for 1 hour. At the same time, a stop solution comprising 20 mg/ml SPA-PVT beads, 1.6 mg/ml monoclonal cortisol antibody and 0.01 mM SSR110887 (inhibitor from the Biovitrium patent) in 50 mM HEPES, 1 M NaCl and 1 M KCl was stirred at room temperature. To stop the reaction, 25 μl of the stop solution were added to each well. The plate was agitated gently at room temperature for 1 further hour and then centrifuged at 500 gav for 1 min, in order that the SPA beads could settle out. The plate was then read in a Wallac-1450-Microbeta unit with a standard SPA program (counting time 1 min/well). The comparative compound was glycyrrhetinic acid.
Protein and radioactive substrate were dispensed with a Biomek FX unit (Beckman Coulter) for handling liquids. The test compounds were added with a Cybi-Well equipped with a 90 nl pin tool (CyBio).
Lit.: Solly S, Mundt S S, Zokian H J, Juy-Fang Ding G, Hermanowski-Vosatka A, Strulovici B and Zheng W. High-throughput screening of 11β-Hydroxysteroid dehydrogenase type 1 in scintillation proximity format. Assay Drug Dev Technol 2005; 3:377-384.

Sequence of human 11β-HSD1 microsome fraction (P28845 whole entry): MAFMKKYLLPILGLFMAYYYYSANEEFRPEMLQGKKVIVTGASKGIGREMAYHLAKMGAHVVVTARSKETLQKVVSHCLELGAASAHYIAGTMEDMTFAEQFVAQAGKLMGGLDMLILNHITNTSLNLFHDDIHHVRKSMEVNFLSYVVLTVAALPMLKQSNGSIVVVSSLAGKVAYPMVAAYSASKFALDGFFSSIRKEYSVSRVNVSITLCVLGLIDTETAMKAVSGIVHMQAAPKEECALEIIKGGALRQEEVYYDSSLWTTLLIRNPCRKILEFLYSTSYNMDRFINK

IC50 [nM] | SMILES
5 | CC1(C)OC(N[C@@H](CCO)c2ccccc2)=NS(=O)(=O)C1Cc1ccc(Cl)cc1 (stereo partly drawn) [Example 1, (S)-3-[5-(4-Chlorobenzyl)-6,6-dimethyl-4,4-dioxo-5,6-dihydro-4H-4lambda6-[1,4,3]oxathiazin-2-ylamino]-3-phenyl-propan-1-ol]
7 | CC1(C)OC(N[C@@H](CCO)c2ccccc2)=NS(=O)(=O)C1Cc1ccccc1 (stereo partly drawn) [Example 2, (S)-3-(5-Benzyl-6,6-dimethyl-4,4-dioxo-5,6-dihydro-4H-4lambda6-[1,4,3]oxathiazin-2-ylamino)-3-phenyl-propan-1-ol]
4 | C[C@H](NC1=NS(=O)(=O)C(C)(Cc2ccc(Br)cc2)C(C)(C)O1)c1ccccc1F (stereo partly drawn) [Example 3, [5-(4-Bromobenzyl)-5,6,6-trimethyl-4,4-dioxo-5,6-dihydro-4H-4lambda6-[1,4,3]oxathiazin-2-yl]-[(S)-1-(2-fluorophenyl)-ethyl]-amine]
3 | CC1(C)OC(N[C@@H](CCO)c2ccccc2F)=NS(=O)(=O)C1(C)Cc1ccc(Br)cc1 (stereo partly drawn) [Example 4, (S)-3-[5-(4-Bromobenzyl)-5,6,6-trimethyl-4,4-dioxo-5,6-dihydro-4H-4lambda6-[1,4,3]oxathiazin-2-ylamino]-3-(2-fluorophenyl)-propan-1-ol]
5 | C[C@H](NC1=NS(=O)(=O)C(C)(Cc2ccccc2)C(C)(C)O1)c1ccccc1F (stereo partly drawn) [Example 5, (5-Benzyl-5,6,6-trimethyl-4,4-dioxo-5,6-dihydro-4H-4lambda6-[1,4,3]oxathiazin-2-yl)-[(S)-1-(2-fluorophenyl)-ethyl]-amine]
6 | CC1(C)OC(N[C@@H](CCO)c2ccccc2F)=NS(=O)(=O)C1(C)Cc1ccc(-c2ccccn2)cc1 (stereo partly drawn) [Example 6, (S)-3-(2-Fluorophenyl)-3-[5,6,6-trimethyl-4,4-dioxo-5-(4-pyridin-2-yl-benzyl)-5,6-dihydro-4H-4lambda6-[1,4,3]oxathiazin-2-ylamino]-propan-1-ol]
12 | CC1(C)OC(N[C@@H](CCO)c2ccccc2F)=NS(=O)(=O)C1(C)Cc1ccc(-c2ccc(C(F)(F)F)cn2)cc1 (stereo partly drawn) [Example 7, (S)-3-(2-Fluorophenyl)-3-{5,6,6-trimethyl-4,4-dioxo-5-[4-(5-trifluoromethyl-pyridin-2-yl)-benzyl]-5,6-dihydro-4H-4lambda6-[1,4,3]oxathiazin-2-ylamino}-propan-1-ol]
7 | CC1(C)OC(N[C@@H](CCO)c2ccccc2F)=NS(=O)(=O)C1Cc1ccc(-c2ccc(C(F)(F)F)cn2)cc1 (stereo partly drawn) [Example 8, (S)-3-{6,6-Dimethyl-4,4-dioxo-5-[4-(5-trifluoromethyl-pyridin-2-yl)-benzyl]-5,6-dihydro-4H-4lambda6-[1,4,3]oxathiazin-2-ylamino}-3-(2-fluoro-phenyl)-propan-1-ol]
5 | CC1(C)OC(N[C@@H](CCO)c2ccccc2F)=NS(=O)(=O)C1Cc1cccc(-c2ccccc2)c1 (stereo partly drawn) [Example 9, (S)-3-(5-Biphenyl-3-ylmethyl-6,6-dimethyl-4,4-dioxo-5,6-dihydro-4H-4lambda6-[1,4,3]oxathiazin-2-ylamino)-3-(2-fluoro-phenyl)-propan-1-ol]
4 | CC1(C)OC(N[C@@H](CCO)c2ccccc2F)=NS(=O)(=O)C1Cc1ccc(-c2ccccc2)cc1 (stereo partly drawn) [Example 10, (S)-3-(5-Biphenyl-4-ylmethyl-6,6-dimethyl-4,4-dioxo-5,6-dihydro-4H-4lambda6-[1,4,3]oxathiazin-2-ylamino)-3-(2-fluoro-phenyl)-propan-1-ol]
8 | CC1(C)OC(N[C@@H](CCO)c2ccccc2Cl)=NS(=O)(=O)C1Cc1ccccc1 (stereo partly drawn) [Example 11, (S)-3-(5-Benzyl-6,6-dimethyl-4,4-dioxo-5,6-dihydro-4H-4lambda6-[1,4,3]oxathiazin-2-ylamino)-3-(2-chlorophenyl)-propan-1-ol]
4 | CC1(C)OC(N[C@@H](CCO)c2ccccc2F)=NS(=O)(=O)C1Cc1ccccc1 (stereo partly drawn) [Example 12, (S)-3-(5-Benzyl-6,6-dimethyl-4,4-dioxo-5,6-dihydro-4H-4lambda6-[1,4,3]oxathiazin-2-ylamino)-3-(2-fluorophenyl)-propan-1-ol]
6 | CC1(C)OC(N[C@@H](CCO)c2cccc(F)c2Cl)=NS(=O)(=O)C1Cc1ccccc1 (stereo partly drawn) [Example 13, (S)-3-(5-Benzyl-6,6-dimethyl-4,4-dioxo-5,6-dihydro-4H-4lambda6-[1,4,3]oxathiazin-2-ylamino)-3-(2-chloro-3-fluorophenyl)-propan-1-ol]
4 | CC1(C)OC(N[C@@H](CCO)c2cc(Cl)ccc2F)=NS(=O)(=O)C1Cc1ccccc1 (stereo partly drawn) [Example 14, (S)-3-(5-Benzyl-6,6-dimethyl-4,4-dioxo-5,6-dihydro-4H-4lambda6-[1,4,3]oxathiazin-2-ylamino)-3-(5-chloro-2-fluorophenyl)-propan-1-ol]
10 | CC1(C)OC(N[C@@H](CCO)c2ccc(Cl)cc2)=NS(=O)(=O)C1Cc1ccccc1 (stereo partly drawn) [Example 15, (S)-3-(5-Benzyl-6,6-dimethyl-4,4-dioxo-5,6-dihydro-4H-4lambda6-[1,4,3]oxathiazin-2-ylamino)-3-(4-chlorophenyl)-propan-1-ol]
6 | CC1(C)OC(N[C@@H](CCO)c2cccc(Cl)c2)=NS(=O)(=O)C1Cc1ccccc1 (stereo partly drawn) [Example 16, (S)-3-(5-Benzyl-6,6-dimethyl-4,4-dioxo-5,6-dihydro-4H-4lambda6-[1,4,3]oxathiazin-2-ylamino)-3-(3-chlorophenyl)-propan-1-ol]
4 | CC1(C)OC(N[C@@H](CCO)c2cc(F)ccc2F)=NS(=O)(=O)C1Cc1ccccc1 (stereo partly drawn) [Example 17, (S)-3-(5-Benzyl-6,6-dimethyl-4,4-dioxo-5,6-dihydro-4H-4lambda6-[1,4,3]oxathiazin-2-ylamino)-3-(2,5-difluorophenyl)-propan-1-ol]
5 | CC1(C)OC(N[C@@H](CCO)c2ccc(F)cc2F)=NS(=O)(=O)C1Cc1ccccc1 (stereo partly drawn) [Example 18, (S)-3-(5-Benzyl-6,6-dimethyl-4,4-dioxo-5,6-dihydro-4H-4lambda6-[1,4,3]oxathiazin-2-ylamino)-3-(2,4-difluorophenyl)-propan-1-ol]
4 | Cc1ccc(F)cc1[C@H](CCO)NC1=NS(=O)(=O)C(Cc2ccccc2)C(C)(C)O1 (stereo partly drawn) [Example 19, (S)-3-(5-Benzyl-6,6-dimethyl-4,4-dioxo-5,6-dihydro-4H-4lambda6-[1,4,3]oxathiazin-2-ylamino)-3-(5-fluoro-2-methyl-phenyl)-propan-1-ol]
5 | CC1(C)OC(NC23CCC(F)(CC2)CC3)=NS(=O)(=O)C1Cc1ccccc1 (stereo not shown) [Example 20, (5-Benzyl-6,6-dimethyl-4,4-dioxo-5,6-dihydro-4H-4lambda6-[1,4,3]oxathiazin-2-yl)-(4-fluoro-bicyclo[2.2.2]oct-1-yl)-amine]
5 | CC1(C)OC(N[C@@H](CCO)c2ccccc2F)=NS(=O)(=O)C1Cc1cccc2ccccc12 (stereo partly drawn) [Example 21, (S)-3-(6,6-Dimethyl-5-naphthalen-1-ylmethyl-4,4-dioxo-5,6-dihydro-4H-4lambda6-[1,4,3]oxathiazin-2-ylamino)-3-(2-fluorophenyl)-propan-1-ol]
7 | CC1(C)OC(N[C@@H](CCO)c2ccccc2F)=NS(=O)(=O)C1Cc1ccc(C2CCNCC2)cc1 (stereo partly drawn) [Example 22, (S)-3-[6,6-Dimethyl-4,4-dioxo-5-(4-piperidin-4-yl-benzyl)-5,6-dihydro-4H-4lambda6-[1,4,3]oxathiazin-2-ylamino]-3-(2-fluorophenyl)-propan-1-ol]
17 | CC1(C)OC(N[C@@H](CCO)c2ccccc2F)=NS(=O)(=O)C1Cc1ccc(C2=CCNCC2)cc1 (stereo partly drawn) [Example 23, (S)-3-{6,6-Dimethyl-4,4-dioxo-5-[4-(1,2,3,6-tetrahydro-pyridin-4-yl)-benzyl]-5,6-dihydro-4H-4lambda6-[1,4,3]oxathiazin-2-ylamino}-3-(2-fluoro-phenyl)-propan-1-ol]
20 | CN1CCC(c2ccc(CC3C(C)(C)OC(N[C@@H](CCO)c4ccccc4F)=NS3(=O)=O)cc2)CC1 (stereo partly shown) [Example 25]
16 | CC1(C)OC(N[C@@H](CCO)c2ccccc2F)=NS(=O)(=O)C1Cc1ccc(C2CCN(CCCO)CC2)cc1 (stereo partly shown) [Example 26]
5 | CC1(C)OC(N[C@@H](CCO)c2ccccc2F)=NS(=O)(=O)C1Cc1ccc(C2CCN(CCO)CC2)cc1 (stereo partly shown) [Example 27]
9 | CC1(C)OC(N[C@@H](CCO)c2ccccc2F)=NS(=O)(=O)C1Cc1ccc(C2CCN(C3CC3)CC2)cc1 (stereo partly drawn) [Example 28, (S)-3-{5-[4-(1-Cyclopropyl-piperidin-4-yl)-benzyl]-6,6-dimethyl-4,4-dioxo-5,6-dihydro-4H-4lambda6-[1,4,3]oxathiazin-2-ylamino}-3-(2-fluorophenyl)-propan-1-ol]
7 | CC1(C)OC(N[C@@H](CCO)c2ccccc2F)=NS(=O)(=O)C1Cc1ccc(C2CCN(CCC(F)(F)F)CC2)cc1 (stereo partly drawn) [Example 29, (S)-3-(6,6-Dimethyl-4,4-dioxo-5-{4-[1-(3,3,3-trifluoropropyl)-piperidin-4-yl]-benzyl}-5,6-dihydro-4H-4lambda6-[1,4,3]oxathiazin-2-ylamino)-3-(2-fluorophenyl)-propan-1-ol]
